This is an account of results in patent publication US12344610B2, “APOL1 inhibitors and methods of use” (Maze Therapeutics, Inc., priority 2022, dated 2025).

In assay [1] the test system is HEK293 clonal cell line overexpressing APOL1 G1. The experiment in a line: APOL1 G1 HEK293 cell rescue assay (Example B3). It counts as cell-based. To be noted: Homo sapiens, HEK293, HEK293 clonal line overexpressing APOL1 G1; geometric mean of at least 2 runs; † = single run; ¥ = concentration at 50% rescue estimated (no sigmoidal curve). In a few lines:
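HEK293 clonal line overexpressing APOL1 G1; EC50 is half-maximal reversal of APOL1-induced cell death. Values are the geometric mean of ≥2 runs on separate days, each run the average of duplicate wells. Where no sigmoidal curve could be fitted, the concentration giving 50% rescue was estimated.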

Assay [2] deals with Trypanosoma brucei Lister 427 VSG221 with APOL1 G0 recombinant protein. The experiment in a line: APOL1 G0 trypanosome cell rescue assay (Example B5). It counts as cell-based. The conditions noted are these: Trypanosoma brucei, 20 h, read-out: APOL1 G0 Trypanosome Rescue EC50, Trypanosoma brucei Lister 427 VSG221 with APOL1 G0 recombinant protein, 20 hours, CellTiter-Glo; geometric mean of at least 2 assay runs; † = single assay run. The method in brief:
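Recombinant mature APOL1 (residues 28-398, His-tag removed, E. coli-expressed, refolded from inclusion bodies, DDM buffer) at […] added with 250 trypanosomes/well in modified HMI-9 media. Duplicate 11-point 2-fold compound series, 0.4% DMSO; 20 h at 37° C, 5% CO2, then CellTiter-Glo luminescence for viability.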
A general note: Cellular ATP, detected with luciferase, serves as a proxy for viable cell number.

Each structure is given as a SMILES string. Bounds are passed on as bounds.

Turning to `CS(=O)(=O)NC1CN(C(=O)c2ccc(OCCN3CCC4(CC3)C(=O)Nc3ccc(Cl)cc34)cc2F)C1` [Compound 237, N-{1-[4-(2-{5-chloro-2-oxo-1,2-dihydrospiro[indole-3,4′-piperidin]-1′-yl}ethoxy)-2-fluorobenzoyl]azetidin-3-yl} methanesulfonamide], the figures for the half-maximal effective concentration (EC50) in assay [1] and in assay [2] were over 3.25 µM and 0.132 µM, respectively.
For `N#Cc1ccc2c(c1)C1(CCN(CCOc3ccc(C(N)=O)c(F)c3)CC1)C(=O)N2` [Compound 238, 4-(2-{5-cyano-2-oxo-1,2-dihydrospiro[indole-3,4′-piperidin]-1′-yl}ethoxy)-2-fluorobenzamide], in that order: 0.244 µM and 1.59 µM.
For `O=C(c1ccc(OCCN2CCC3(CC2)C(=O)Nc2ccc(Cl)cc23)cc1F)N1CC2(C1)CS(=O)(=O)C2` [Compound 239, 6-[4-(2-{5-chloro-2-oxo-1,2-dihydrospiro[indole-3,4′-piperidin]-1′-yl}ethoxy)-2-fluorobenzoyl]-2λ^6-thia-6-azaspiro[3.3]heptane-2,2-dione], the EC50 is 0.191 µM in assay [1] and 0.04 µM in assay [2].
For `Cc1n[nH]cc1-c1ccc(OCCN2CCC3(CC2)C(=O)Nc2ccc(Cl)cc23)cc1` [Compound 244, 5-chloro-1′-{2-[4-(5-methyl-1H-pyrazol-4-yl)phenoxy]ethyl}-1,2-dihydrospiro[indole-3,4′-piperidin]-2-one], in that order: 0.189 µM and 0.141 µM.
As for `CNC(=O)N1CCc2cc(OCCN3CCC4(CC3)C(=O)Nc3ccc(Cl)cc34)ccc2C1` [Compound 245, 6-(2-{5-chloro-2-oxo-1,2-dihydrospiro[indole-3,4′-piperidin]-1′-yl}ethoxy)-N-methyl-1,2,3,4-tetrahydroisoquinoline-2-carboxamide], the results for the EC50 in assay [1] and in assay [2] were 0.301 µM and 0.265 µM, respectively.
The like results for `Cn1c(=O)[nH]c2cc(OCCN3CCC4(CC3)C(=O)Nc3ccc(Cl)cc34)cnc21` [Compound 247, 5-chloro-1′-[2-({3-methyl-2-oxo-1H,2H,3H-imidazo[4,5-b]pyridin-6-yl}oxy)ethyl]-1,2-dihydrospiro[indole-3,4′-piperidin]-2-one] were, in that order, 0.27 µM and 0.186 µM.
The like results for `O=C1Nc2ccc(Cl)cc2C12CCN(CCOc1ccc(S(=O)(=O)C3(CO)CC3)nc1)CC2` [Compound 248, 5-chloro-1′-{2-[(6-{[1-(hydroxymethyl)cyclopropyl]sulfonyl}pyridin-3-yl)oxy]ethyl}-1,2-dihydrospiro[indole-3,4′-piperidin]-2-one] were, in that order, 0.219 µM and 0.0862 µM.
For `NC(=O)c1ccc(OCCN2CCC3(CC2)C(=O)Nc2ccc(Cl)cc23)cc1C(F)F` [Compound 249, 4-(2-{5-chloro-2-oxo-1,2-dihydrospiro[indole-3,4′-piperidin]-1′-yl}ethoxy)-2-(difluoromethyl)benzamide], in that order: 0.0706 µM and 0.0538 µM.
In the case of `N#Cc1ccc2c(c1)C1(CCN(CCOc3ccc(C(N)=O)c(C(F)F)c3)CC1)C(=O)N2` [Compound 250, 4-(2-{5-cyano-2-oxo-1,2-dihydrospiro[indole-3,4′-piperidin]-1′-yl}ethoxy)-2-(difluoromethyl)benzamide], the results for the half-maximal effective concentration (EC50) in assay [1] and in assay [2] were 0.192 µM and 0.445 µM, respectively.
For `CN1C(=O)C2(CCN(CCOc3ccc(C4(S(C)(=O)=O)COC4)cc3)CC2)c2cc(C#N)ccc21` [Compound 251, 1′-{2-[4-(3-methanesulfonyloxetan-3-yl)phenoxy]ethyl}-1-methyl-2-oxo-1,2-dihydrospiro[indole-3,4′-piperidine]-5-carbonitrile], in that order: about 0.323 µM and 0.903 µM.
For `CN(C)C(=O)C1(c2ccc(OCCN3CCC4(CC3)C(=O)Nc3ccc(C#N)cc34)cc2)COC1` [Compound 254, 3-[4-(2-{5-cyano-2-oxo-1,2-dihydrospiro[indole-3,4′-piperidin]-1′-yl}ethoxy)phenyl]-N,N-dimethyloxetane-3-carboxamide], in that order: 2.04 µM and 0.695 µM.
For `CNC(=O)C1(c2ccc(OCCN3CCC4(CC3)C(=O)Nc3ccc(C#N)cc34)cc2)COC1` [Compound 255, 3-[4-(2-{5-cyano-2-oxo-1,2-dihydrospiro[indole-3,4′-piperidin]-1′-yl}ethoxy)phenyl]-N-methyloxetane-3-carboxamide], in that order: about 2.9 µM and 1.38 µM.
As for `O=C(c1c(F)cc(OCCN2CCC3(CC2)C(=O)Nc2ccc(Cl)cc23)cc1F)N1CCS(=O)(=O)CC1` [Compound 259, 4-[4-(2-{5-chloro-2-oxo-1,2-dihydrospiro[indole-3,4′-piperidin]-1′-yl}ethoxy)-2,6-difluorobenzoyl]-1λ^6-thiomorpholine-1,1-dione], the EC50 in assay [1] is 0.0925 µM; in assay [2], 0.068 µM.
The like results for `CN1C(=O)C2(CCN(CCOc3cc(F)c(C(=O)N4CCS(=O)(=O)CC4)c(F)c3)CC2)c2cc(C#N)ccc21` [Compound 260, 1′-{2-[4-(1,1-dioxo-1λ^6-thiomorpholine-4-carbonyl)-3,5-difluorophenoxy]ethyl}-1-methyl-2-oxo-1,2-dihydrospiro[indole-3,4′-piperidine]-5-carbonitrile] were, in that order, 0.248 µM and 0.274 µM.
The like results for `CN1C(=O)C2(CCN(CCOc3ccc(C(=O)N4CCS(=O)(=O)CC4)c(C(F)(F)F)c3)CC2)c2cc(C#N)ccc21` [Compound 261, 1′-{2-[4-(1,1-dioxo-1λ^6-thiomorpholine-4-carbonyl)-3-(trifluoromethyl)phenoxy]ethyl}-1-methyl-2-oxo-1,2-dihydrospiro[indole-3,4′-piperidine]-5-carbonitrile] were, in that order, 0.167 µM and 0.084 µM.
The like results for `CS(=O)(=O)c1ccc(OCCN2CCC3(CC2)C(=O)N(CCO)c2ccc(Cl)cc23)cc1C(F)F` [Compound 265, 5-chloro-1′-{2-[3-(difluoromethyl)-4-methanesulfonylphenoxy]ethyl}-1-(2-hydroxyethyl)-1,2-dihydrospiro[indole-3,4′-piperidin]-2-one] were, in that order, 0.132 µM and 0.0676 µM.
With `CS(=O)(=O)c1ccc(OCCN2CCC3(CC2)C(=O)N(CCO)c2ccc(C#N)cc23)cc1C(F)F` [Compound 266, 1′-{2-[3-(difluoromethyl)-4-methanesulfonylphenoxy]ethyl}-1-(2-hydroxyethyl)-2-oxo-1,2-dihydrospiro[indole-3,4′-piperidine]-5-carbonitrile], the concentration giving a half-maximal response (EC50) in assay [1] was 0.353 µM; in assay [2], 0.236 µM.
Consider `O=C(c1ccc(OCCN2CCC3(CC2)C(=O)Nc2ccc(Cl)cc23)cc1C(F)(F)F)N1CCS(=O)(=O)CC1` [Compound 272, 4-[4-(2-{5-chloro-2-oxo-1,2-dihydrospiro[indole-3,4′-piperidin]-1′-yl}ethoxy)-2-(trifluoromethyl)benzoyl]-1λ^6-thiomorpholine-1,1-dione], for which the figures for the 50% effective concentration (EC50) in assay [1] and in assay [2] were 0.148 µM and 0.0589 µM, respectively.
Turning to `CS(=O)(=O)N1CC2(CN(C(=O)c3ccc(OCCN4CCC5(CC4)C(=O)Nc4ccc(Cl)cc45)cc3F)C2)C1` [Compound 273, 5-chloro-1′-[2-(3-fluoro-4-{6-methanesulfonyl-2,6-diazaspiro[3.3]heptane-2-carbonyl}phenoxy)ethyl]-1,2-dihydrospiro[indole-3,4′-piperidin]-2-one], the EC50 is 0.206 µM in assay [1] and 0.0649 µM in assay [2].
For `C[C@]1(O)C[C@@H](N2C(=O)CCc3cc(OCCN4CCC5(CC4)C(=O)Nc4ccc(C(F)F)cc45)cnc32)C1` [Compound 274, 5-(difluoromethyl)-1′-[2-({7-oxo-8-[(cis)-3-hydroxy-3-methylcyclobutyl]-5,6,7,8-tetrahydro-1,8-naphthyridin-3-yl}oxy)ethyl]-1,2-dihydrospiro[indole-3,4′-piperidin]-2-one], in that order: 0.0999 µM and 0.0593 µM.
In the case of `C[C@]1(O)C[C@@H](N2C(=O)CCc3cc(OCCN4CCC5(CC4)C(=O)Nc4ccc(Cl)cc45)cnc32)C1` [Compound 275, 5-chloro-1′-[2-({7-oxo-8-[(cis)-3-hydroxy-3-methylcyclobutyl]-5,6,7,8-tetrahydro-1,8-naphthyridin-3-yl}oxy)ethyl]-1,2-dihydrospiro[indole-3,4′-piperidin]-2-one], the values for the concentration for a half-maximal effect (EC50) in assay [1] and in assay [2] were 0.0627 µM and 0.0612 µM, respectively.
For `CS(=O)(=O)C1(c2ncc(OCCN3CCC4(CC3)C(=O)Nc3ccc(Cl)cc34)cn2)COC1` [Compound 276, 5-chloro-1′-(2-{[2-(3-methanesulfonyloxetan-3-yl)pyrimidin-5-yl]oxy}ethyl)-1,2-dihydrospiro[indole-3,4′-piperidin]-2-one], in that order: 0.228 µM and 0.178 µM.
The like results for `CS(=O)(=O)C1(c2ncc(OCCN3CCC4(CC3)C(=O)Nc3ccc(C#N)cc34)cc2F)CC1` [Compound 283, 1′-(2-{[5-fluoro-6-(1-methanesulfonylcyclopropyl)pyridin-3-yl]oxy}ethyl)-2-oxo-1,2-dihydrospiro[indole-3,4′-piperidine]-5-carbonitrile] were, in that order, 0.211 µM and 0.216 µM.
For `CC(O)c1ncc(OCCN2CCC3(CC2)C(=O)Nc2ccc(Cl)cc23)cn1` (stereo not drawn) [Compound 284, 5-chloro-1′-(2-{[2-(1-hydroxyethyl)pyrimidin-5-yl]oxy}ethyl)-1,2-dihydrospiro[indole-3,4′-piperidin]-2-one], in that order: 0.775 µM and 0.808 µM.

As a reminder, the EC50 is the concentration at which the effect is half-maximal.
